Measured values as given in PubChem BioAssay (NCI).
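Results reflect a 48-hour exposure of cells in 96-well plates to compound at five concentrations. TGI: concentration producing complete growth inhibition.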

Assays:
Test in all cases: NCI anticancer screen, dose series, 48 h
MALME-3M melanoma = system: MALME-3M melanoma
SF-295 CNS = system: SF-295 CNS
LOX IMVI melanoma = system: LOX IMVI melanoma
NCI-H226 lung = system: NCI-H226 lung
ACHN renal = system: ACHN renal
T-47D breast = system: T-47D breast
U251 CNS = system: U251 CNS
HCC-2998 colon = system: HCC-2998 colon
OVCAR-4 ovarian = system: OVCAR-4 ovarian
SK-MEL-2 melanoma = system: SK-MEL-2 melanoma
HCT-15 colon = system: HCT-15 colon
A498 renal = system: A498 renal
BT-549 breast = system: BT-549 breast

C=C1CCCCCCCCC/C=C/1SCCCSC
TGI (MALME-3M melanoma): > 100 µM | TGI (SF-295 CNS): > 100 µM | TGI (LOX IMVI melanoma): > 100 µM | TGI (NCI-H226 lung): > 100 µM | TGI (ACHN renal): > 100 µM | TGI (T-47D breast): > 100 µM | TGI (U251 CNS): > 100 µM | TGI (HCC-2998 colon): > 100 µM | TGI (OVCAR-4 ovarian): > 100 µM | TGI (SK-MEL-2 melanoma): > 100 µM | TGI (HCT-15 colon): > 100 µM | TGI (A498 renal): > 100 µM

Cc1[nH]n(-c2nc(O)c(-c3ccccc3)c(=O)[nH]2)c(=O)c1CCO
TGI (MALME-3M melanoma): > 100 µM | TGI (SF-295 CNS): > 100 µM | TGI (NCI-H226 lung): > 100 µM | TGI (ACHN renal): > 100 µM | TGI (BT-549 breast): > 100 µM | TGI (T-47D breast): > 100 µM | TGI (U251 CNS): > 100 µM | TGI (OVCAR-4 ovarian): > 100 µM | TGI (SK-MEL-2 melanoma): > 100 µM | TGI (HCT-15 colon): > 100 µM | TGI (A498 renal): > 100 µM

Cc1ccc(C(=O)NCc2ccccc2)cc1N=NN(C)C
TGI (MALME-3M melanoma): > 100 µM | TGI (SF-295 CNS): > 100 µM | TGI (LOX IMVI melanoma): > 100 µM | TGI (NCI-H226 lung): > 100 µM | TGI (ACHN renal): > 100 µM | TGI (BT-549 breast): > 100 µM | TGI (T-47D breast): > 100 µM | TGI (U251 CNS): > 100 µM | TGI (HCC-2998 colon): > 100 µM | TGI (OVCAR-4 ovarian): > 100 µM | TGI (SK-MEL-2 melanoma): > 100 µM | TGI (HCT-15 colon): > 100 µM

CN1CCc2c(sc3[nH]c(=S)[nH]c(=S)c23)C1
TGI (MALME-3M melanoma): > 100 µM | TGI (SF-295 CNS): > 100 µM | TGI (LOX IMVI melanoma): > 100 µM | TGI (NCI-H226 lung): > 100 µM | TGI (ACHN renal): > 100 µM | TGI (BT-549 breast): > 100 µM | TGI (T-47D breast): > 100 µM | TGI (U251 CNS): > 100 µM | TGI (OVCAR-4 ovarian): > 100 µM | TGI (SK-MEL-2 melanoma): > 100 µM | TGI (HCT-15 colon): > 100 µM

NC1(CCNC(=O)c2ccccc2)CCN(C(=O)c2ccccc2)CC1
TGI (MALME-3M melanoma): > 100 µM | TGI (SF-295 CNS): > 100 µM | TGI (NCI-H226 lung): > 100 µM | TGI (ACHN renal): > 100 µM | TGI (BT-549 breast): > 100 µM | TGI (T-47D breast): > 100 µM | TGI (U251 CNS): > 100 µM | TGI (SK-MEL-2 melanoma): > 100 µM | TGI (HCT-15 colon): > 100 µM

CC(=O)OCC1OC(n2c(C)c(N=Nc3ccc(Cl)cc3)c(C)c(C#N)c2=S)C(OC(C)=O)C(OC(C)=O)C1OC(C)=O (stereo unspecified)
TGI (MALME-3M melanoma): > 100 µM | TGI (SF-295 CNS): 76.5 µM | TGI (LOX IMVI melanoma): > 100 µM | TGI (ACHN renal): > 100 µM | TGI (BT-549 breast): 52.3 µM | TGI (T-47D breast): > 100 µM | TGI (U251 CNS): 98 µM | TGI (HCC-2998 colon): > 100 µM | TGI (OVCAR-4 ovarian): > 100 µM | TGI (SK-MEL-2 melanoma): 92.1 µM | TGI (HCT-15 colon): > 100 µM

NCCCN(CCCN)CCc1cn(C(=O)c2ccccc2)cn1
TGI (MALME-3M melanoma): 33.8 µM | TGI (SF-295 CNS): 30.7 µM | TGI (LOX IMVI melanoma): 43.5 µM | TGI (NCI-H226 lung): 26.1 µM | TGI (ACHN renal): 19.2 µM | TGI (BT-549 breast): 35.1 µM | TGI (T-47D breast): 16.8 µM | TGI (U251 CNS): 30.1 µM | TGI (HCC-2998 colon): 19 µM | TGI (OVCAR-4 ovarian): 15.3 µM | TGI (SK-MEL-2 melanoma): 24.7 µM | TGI (HCT-15 colon): 27.1 µM

CC1CC(Nc2ccc(Br)cc2)N(C(=O)c2ccc(Br)cc2)O1 (stereo unspecified)
TGI (MALME-3M melanoma): > 10 µM | TGI (SF-295 CNS): > 10 µM | TGI (NCI-H226 lung): > 10 µM | TGI (ACHN renal): > 10 µM | TGI (BT-549 breast): > 10 µM | TGI (T-47D breast): > 10 µM | TGI (HCC-2998 colon): > 10 µM | TGI (OVCAR-4 ovarian): > 10 µM | TGI (SK-MEL-2 melanoma): > 10 µM | TGI (HCT-15 colon): > 10 µM

CCOC(=O)CCC(NC(=O)c1ccc(NCc2ccc3nc(-c4ccccc4)c(Cl)nc3c2)cc1)C(=O)OCC (stereo unspecified)
TGI (MALME-3M melanoma): 26 µM | TGI (SF-295 CNS): > 100 µM | TGI (LOX IMVI melanoma): > 100 µM | TGI (NCI-H226 lung): > 100 µM | TGI (ACHN renal): > 100 µM | TGI (U251 CNS): > 100 µM | TGI (HCC-2998 colon): > 100 µM | TGI (OVCAR-4 ovarian): 90.6 µM | TGI (SK-MEL-2 melanoma): 25.9 µM | TGI (HCT-15 colon): > 100 µM | TGI (A498 renal): 78.6 µM

CN1CC=C(c2c(N)nc(N)[nH]c2=O)CC1
TGI (MALME-3M melanoma): > 100 µM | TGI (SF-295 CNS): > 100 µM | TGI (NCI-H226 lung): > 100 µM | TGI (ACHN renal): > 100 µM | TGI (BT-549 breast): > 100 µM | TGI (T-47D breast): > 100 µM | TGI (U251 CNS): > 100 µM | TGI (OVCAR-4 ovarian): > 100 µM | TGI (SK-MEL-2 melanoma): > 100 µM | TGI (HCT-15 colon): > 100 µM | TGI (A498 renal): > 100 µM

N[C@H](Cc1ccc2oc3cc(=O)c4ccccc4c-3nc2c1)C(=O)O
TGI (MALME-3M melanoma): 38.5 µM | TGI (SF-295 CNS): > 100 µM | TGI (LOX IMVI melanoma): > 100 µM | TGI (NCI-H226 lung): > 100 µM | TGI (ACHN renal): > 100 µM | TGI (T-47D breast): > 100 µM | TGI (U251 CNS): > 100 µM | TGI (OVCAR-4 ovarian): > 100 µM | TGI (HCT-15 colon): > 100 µM | TGI (A498 renal): > 100 µM

Cc1ccc2c(c1)CC1(Cc3cccc(C)c3C1=O)C2=O (stereo unspecified)
TGI (MALME-3M melanoma): > 100 µM | TGI (SF-295 CNS): > 100 µM | TGI (LOX IMVI melanoma): > 10 µM | TGI (NCI-H226 lung): > 100 µM | TGI (ACHN renal): > 100 µM | TGI (T-47D breast): > 10 µM | TGI (U251 CNS): > 100 µM | TGI (HCC-2998 colon): > 100 µM | TGI (OVCAR-4 ovarian): > 100 µM | TGI (HCT-15 colon): > 100 µM | TGI (A498 renal): > 100 µM

COc1cccc(-c2nc(-c3cnccn3)n(C/C=C/c3ccccc3)n2)c1
TGI (MALME-3M melanoma): > 10 µM | TGI (SF-295 CNS): > 10 µM | TGI (LOX IMVI melanoma): > 10 µM | TGI (NCI-H226 lung): > 10 µM | TGI (ACHN renal): > 10 µM | TGI (BT-549 breast): > 10 µM | TGI (U251 CNS): > 10 µM | TGI (HCC-2998 colon): > 10 µM | TGI (OVCAR-4 ovarian): > 10 µM | TGI (SK-MEL-2 melanoma): > 10 µM | TGI (HCT-15 colon): > 10 µM

Cn1nnnc1SC(F)(F)c1nc2ccccc2o1
TGI (MALME-3M melanoma): > 100 µM | TGI (SF-295 CNS): > 100 µM | TGI (NCI-H226 lung): > 100 µM | TGI (ACHN renal): > 100 µM | TGI (BT-549 breast): > 100 µM | TGI (T-47D breast): > 100 µM | TGI (U251 CNS): > 100 µM | TGI (HCC-2998 colon): > 100 µM | TGI (OVCAR-4 ovarian): > 100 µM | TGI (SK-MEL-2 melanoma): > 100 µM | TGI (HCT-15 colon): > 100 µM | TGI (A498 renal): > 100 µM

Cc1ccc(NC(=O)C(=O)C2C(=O)NC(=O)NC2=O)cc1C
TGI (MALME-3M melanoma): > 100 µM | TGI (SF-295 CNS): > 100 µM | TGI (LOX IMVI melanoma): > 100 µM | TGI (NCI-H226 lung): > 100 µM | TGI (ACHN renal): > 100 µM | TGI (U251 CNS): > 100 µM | TGI (HCC-2998 colon): > 100 µM | TGI (OVCAR-4 ovarian): > 100 µM | TGI (SK-MEL-2 melanoma): > 100 µM | TGI (HCT-15 colon): > 100 µM

CC(NC(=O)Cc1ccccc1)NC(=O)C(C)C(=O)NCc1ccccc1 (stereo unspecified)
TGI (MALME-3M melanoma): > 100 µM | TGI (SF-295 CNS): > 100 µM | TGI (NCI-H226 lung): 77.8 µM | TGI (ACHN renal): > 100 µM | TGI (BT-549 breast): 75 µM | TGI (T-47D breast): > 100 µM | TGI (U251 CNS): > 100 µM | TGI (OVCAR-4 ovarian): > 100 µM | TGI (SK-MEL-2 melanoma): > 100 µM | TGI (HCT-15 colon): > 100 µM

CC(=O)O[C@]12CCCCCC1C1(O)C(O)CCCCC12 (stereo partly specified)
TGI (MALME-3M melanoma): > 100 µM | TGI (SF-295 CNS): > 100 µM | TGI (LOX IMVI melanoma): > 100 µM | TGI (NCI-H226 lung): > 100 µM | TGI (ACHN renal): > 100 µM | TGI (U251 CNS): > 100 µM | TGI (OVCAR-4 ovarian): > 100 µM | TGI (SK-MEL-2 melanoma): > 100 µM | TGI (HCT-15 colon): > 100 µM

COc1ccc(/C=N/N=C(\N)NO)c(OC)c1C
TGI (MALME-3M melanoma): 35.2 µM | TGI (SF-295 CNS): > 100 µM | TGI (LOX IMVI melanoma): > 100 µM | TGI (NCI-H226 lung): 49.5 µM | TGI (ACHN renal): 43.1 µM | TGI (U251 CNS): > 100 µM | TGI (HCC-2998 colon): 22.1 µM | TGI (OVCAR-4 ovarian): > 100 µM | TGI (SK-MEL-2 melanoma): 70.6 µM | TGI (HCT-15 colon): > 100 µM | TGI (A498 renal): 87.6 µM

CC1(C)OP(=O)(O)C=C1Sc1ccc([N+](=O)[O-])cc1[N+](=O)[O-]
TGI (MALME-3M melanoma): > 100 µM | TGI (SF-295 CNS): > 100 µM | TGI (LOX IMVI melanoma): > 100 µM | TGI (NCI-H226 lung): > 100 µM | TGI (ACHN renal): > 100 µM | TGI (T-47D breast): > 100 µM | TGI (U251 CNS): > 100 µM | TGI (HCC-2998 colon): > 100 µM | TGI (OVCAR-4 ovarian): > 100 µM | TGI (SK-MEL-2 melanoma): > 100 µM | TGI (HCT-15 colon): > 100 µM | TGI (A498 renal): > 100 µM
